Measurements reported in patent publication US20250114347A1, “TOPICAL NALTREXONE AS A TREATMENT FOR DRY EYE” (The Penn State Research Foundation, priority 2022, published 2025).

Experiments:
normal rat = assay: Schirmer test (tear production) in a normal rat, topical drops; assay type: in vivo; conditions: 3% NTX solution, topical drop
Experimental: (§1) Four solutions were prepared with 0%, 0.5%, 1.5%, and 3% naltrexone (NTX). Previous formulations contained 0.003% NTX.
(§2) Experimental paradigm: 1-4 rats were tested with each dose (mixture of male and females). Left eyes only were treated twice daily with one drop. • Schirmer test for baseline (to determine tear production and establish dry eye) • Add drop at 0800 and again at 1700 hr (4:40-6:00 pm) • Take Schirmer test 24 hr later • Add drop at 0800 and again at 1700 hr (4th drop) • Take Schirmer test 48 hr after first drop

diabetic rats = assay: Schirmer test (tear production) in hyperglycemic rats with dry eye, topical drops twice daily; assay type: in vivo, Sprague-Dawley rats
Experimental: as §1
Adult male and female Sprague-Dawley rats were rendered hyperglycemic for 6-8 weeks, with blood glucose levels >600 mg/dL. Age at time of testing was 15-18 weeks of age.
as §2

Compound: O=C1CC[C@@]2(O)[C@H]3Cc4ccc(O)c5c4[C@@]2(CCN3CC2CC2)[C@H]1O5 [NTX, 17-(cyclopropylmethyl)-4,5α-epoxy-3,14-dihydroxymorphinan-6-one]
- effect on dry eye in a normal rat (normal rat): caused dry eye
- reversal of dry eye (diabetic rats; 0.5% NTX solution, one drop twice daily, Schirmer test at 24 and 48 hr): reversed dry eye
- relative effectiveness among the tested concentrations (diabetic rats; 1.5% NTX solution compared with 0.5% and 3%): most effective
- reversal of dry eye (diabetic rats; 1.5% NTX solution, one drop twice daily, Schirmer test at 24 and 48 hr): reversed dry eye
- reversal of dry eye (diabetic rats; 3% NTX solution left at RT for 3 weeks (some decomposition of the NTX)): effective at reversing dry eye
- reversal of dry eye (diabetic rats; 3% NTX solution, both male and female, one drop twice daily, Schirmer test at 24 and 48 hr): did not reverse dry eye
